Experimental data taken from the supplement of paper PMC10331698.
± gives the standard deviation of the averaged measurements.

Experiments:
Assay in all cases: level (log10 ratio to DMSO vehicle control); higher = higher biomarker level / cell amount than vehicle control
[1] = compound: CO[Si](C)(CCC(F)(F)C(F)(F)C(F)(F)C(F)(F)C(F)(F)C(F)(F)F)OC [Dimethoxymethyl((perfluorohexyl)ethyl)silane] (in DMSO)
Experimental: (§1)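 BioMAP Diversity Plus panel of 12 human primary cell co-culture systems (3C, 4H, LPS, SAg, BT, BF4T, BE3C, CASM3C, HDF3CGF, KF3CT, MyoF, Mphg). Compounds were added 1 h before stimulation and left for 24 h (MyoF 48 h; BT 72 h for soluble read-outs or 6 d for IgG). Biomarkers were read by ELISA, cytotoxicity by SRB, PBMC viability and proliferation by Alamar Blue. Each well value was divided by the mean of 8 DMSO control wells on the same plate and log10 transformed; duplicate blinded samples were tested at 4 concentrations.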

[2] = compound: C[C@@H]1C[C@H]2[C@@H]3CCC4=CC(=O)C=C[C@]4(C)[C@@]3(F)[C@@H](O)C[C@]2(C)[C@@]1(O)C(=O)COP(=O)(O)O [Dexamethasone sodium phosphate] (in DMSO)
Experimental: as §1

Octafluoroadipic acid = compound: O=C(O)C(F)(F)C(F)(F)C(F)(F)C(F)(F)C(=O)O [Octafluoroadipic acid] (in DMSO)
Experimental: as §1

[3] = compound: NS(=O)(=O)C(F)(F)C(F)(F)C(F)(F)C(F)(F)C(F)(F)C(F)(F)C(F)(F)C(F)(F)F [Perfluorooctanesulfonamide] (in DMSO)
Experimental: as §1

[4] = compound: OCC(F)(F)OC(F)(F)C(F)(F)OC(F)(F)C(F)(F)OC(F)(F)CO [1H,1H,11H,11H-Perfluorotetraethylene glycol] (in DMSO)
Experimental: as §1

[5] = compound: O=S(=O)(O)C(F)(F)C(F)(F)C(F)(F)C(F)(F)C(F)(F)C(F)(F)C(F)(F)F [Perfluoroheptanesulfonic acid] (in DMSO)
Experimental: as §1

| Test System | level (log10) ([1]; 6700 nM) | level (log10) ([1]; 20000 nM) | level (log10) ([2]; 1500 nM) | level (log10) ([2]; 4400 nM) | level (log10) ([2]; 13000 nM) | level (log10) ([2]; 40000 nM) | level (log10) (Octafluoroadipic acid; 6700 nM) | level (log10) (Octafluoroadipic acid; 20000 nM) | level (log10) (Octafluoroadipic acid; 60000 nM) | level (log10) ([3]; 6700 nM) | level (log10) ([3]; 20000 nM) | level (log10) ([4]; 6700 nM) | level (log10) ([4]; 20000 nM) | level (log10) ([4]; 60000 nM) | level (log10) ([5]; 1500 nM) | level (log10) ([5]; 4400 nM) | level (log10) ([5]; 13000 nM) | level (log10) ([5]; 40000 nM) |
| --- | --- | --- | --- | --- | --- | --- | --- | --- | --- | --- | --- | --- | --- | --- | --- | --- | --- | --- |
| HDF3CGF:SRB | 0.0315 ± 0.025 | 0.0455 ± 0.036 | 0.0165 ± 0.0064 | 0.0285 ± 0.025 | 0.0515 ± 0.03 | 0.0415 ± 0.07 | -0.033 ± 0.023 | 0.0135 ± 0.037 | -0.0005 ± 0.042 | -0.028 ± 0.055 | 0.0615 ± 0.019 | -0.0225 ± 0.043 | -0.023 ± 0.1 | -0.0555 ± 0.077 | -0.042 ± 0.028 | -0.045 ± 0.011 | -0.0065 ± 0.015 | 0.035 ± 0.1 |
| CASM3C:LDLR | -0.0135 ± 0.00071 | 0.0165 ± 0.029 | 0.05 ± 0.0057 | 0.03 ± 0.033 | 0.0065 ± 0.03 | 0.031 ± 0.05 | -0.0215 ± 0.023 | -0.008 ± 0.018 | 0.029 ± 0.047 | -0.0095 ± 0.011 | -0.0165 ± 0.0078 | -0.019 ± 0.0028 | -0.025 ± 0.0042 | 0.0225 ± 0.022 | -0.0275 ± 0.0021 | -0.0135 ± 0.00071 | -0.0215 ± 0.0092 | -0.0165 ± 0.011 |
| HDF3CGF:Proliferation 72hr | 0.02 ± 0.011 | 0.007 ± 0.037 | 0.0165 ± 0.011 | -0.0255 ± 0.047 | 0.0645 ± 0.015 | 0.095 ± 0.064 | -0.036 ± 0.0042 | 0.024 ± 0.047 | 0.013 ± 0.017 | 0.0105 ± 0.036 | -0.58 ± 0.15 | -0.125 ± 0.1 | -0.178 ± 0.12 | -0.358 ± 0.064 | -0.042 ± 0.088 | -0.02 ± 0.031 | 0.076 ± 0.021 | 0.107 ± 0.0042 |
| CASM3C:M-CSF | -0.012 ± 0.013 | 0.0045 ± 0.043 | 0.157 ± 0.031 | 0.155 ± 0.023 | 0.141 ± 0.0085 | 0.151 ± 0.0092 | -0.039 ± 0.02 | -0.024 ± 0.042 | 0.0155 ± 0.1 | 0.022 | 0.04 ± 0.0099 | -0.0255 ± 0.026 | -0.035 ± 0.02 | -0.0345 ± 0.011 | -0.0215 ± 0.0021 | -0.0305 ± 0.0035 | -0.039 ± 0.028 | -0.02 ± 0.047 |
| lMphg:CCL3/MIP-1alpha | -0.012 ± 0.0099 | 0.0065 ± 0.023 | -0.139 ± 0.016 | -0.173 ± 0.043 | -0.254 ± 0.06 | -0.209 ± 0.055 | -0.035 ± 0.024 | -0.0045 ± 0.023 | 0.002 ± 0.018 | -0.003 ± 0.016 | 0.023 ± 0.0099 | -0.051 ± 0.051 | -0.0435 ± 0.026 | 0.015 ± 0.055 | -0.04 ± 0.0071 | -0.0135 ± 0.047 | -0.0225 ± 0.064 | -0.014 ± 0.037 |
| lMphg:SRB-Mphg | 0.0195 ± 0.0021 | 0.0295 ± 0.0021 | -0.0225 ± 0.022 | -0.0625 ± 0.005 | -0.0715 ± 0.018 | -0.0805 ± 0.057 | -0.026 ± 0.016 | 0.0135 ± 0.022 | 0.0265 ± 0.029 | -0.0005 ± 0.0064 | -0.027 ± 0.016 | 0 ± 0.0042 | -0.011 ± 0.0028 | -0.077 ± 0.0028 | -0.0005 ± 0.016 | -0.0025 ± 0.036 | 0.002 ± 0.0099 | -0.0005 ± 0.036 |
| lMphg:IL-1alpha | -0.032 ± 0.0014 | 0.0125 ± 0.073 | -0.0345 ± 0.005 | -0.0335 ± 0.0092 | -0.102 ± 0.05 | -0.096 ± 0.0099 | -0.0495 ± 0.013 | -0.041 ± 0.027 | 0.039 ± 0.031 | 0.053 ± 0.05 | 0.228 ± 0.028 | 0.012 ± 0.0057 | 0.0065 ± 0.04 | 0.0605 ± 0.053 | 0.0075 ± 0.036 | -0.0045 ± 0.028 | 0 ± 0.042 | 0.073 ± 0.044 |
| MyoF:Collagen I | -0.0075 ± 0.0064 | 0.007 ± 0.0014 | 0.032 ± 0.021 | 0.032 ± 0.0057 | 0.006 ± 0.0071 | 0.027 ± 0.0042 | -0.0165 ± 0.018 | -0.021 ± 0.021 | -0.005 ± 0.0042 | -0.018 ± 0.014 | -0.236 ± 0.0028 | -0.0005 ± 0.026 | 0.001 ± 0.03 | -0.0495 ± 0.016 | -0.0035 ± 0.0021 | 0.0135 ± 0.005 | -0.009 ± 0.0085 | 0.0105 ± 0.011 |
| HDF3CGF:CXCL8/IL-8 | -0.0055 ± 0.0035 | 0.01 ± 0.0028 | -0.039 ± 0.014 | -0.0725 ± 0.005 | -0.0645 ± 0.018 | -0.0515 ± 0.039 | -0.0005 ± 0.0078 | 0.003 ± 0.0014 | 0.0065 ± 0.0092 | 0.004 ± 0.0085 | -0.204 ± 0.11 | 0.0015 ± 0.028 | -0.0025 ± 0.011 | 0.0115 ± 0.0064 | 0.0125 ± 0.005 | -0.0115 ± 0.005 | 0.008 ± 0.0042 | 0.0065 ± 0.026 |
| KF3CT:SRB | -0.0045 ± 0.0064 | -0.004 ± 0.0028 | -0.0025 ± 0.00071 | -0.0035 ± 0.0035 | -0.0005 ± 0.005 | 0.0055 ± 0.012 | -0.0065 ± 0.005 | 0.003 ± 0.013 | 0.001 ± 0.018 | -0.0035 ± 0.015 | -0.0455 ± 0.029 | -0.003 ± 0.014 | 0.003 ± 0.0071 | -0.012 ± 0.013 | 0.0015 ± 0.005 | -0.0015 ± 0.0064 | -0.0005 ± 0.00071 | -0.0005 ± 0.005 |
| MyoF:CD106/VCAM-1 | 0.003 ± 0.0042 | -0.008 ± 0.018 | -0.0825 ± 0.03 | -0.046 ± 0.0057 | -0.058 ± 0.013 | -0.0655 ± 0.016 | -0.0235 ± 0.005 | -0.0255 ± 0.022 | -0.0085 ± 0.016 | -0.005 ± 0.023 | -0.293 ± 0.088 | 0.011 ± 0.0057 | -0.012 ± 0.011 | -0.0985 ± 0.05 | -0.01 ± 0.0057 | -0.0015 ± 0.005 | -0.0055 ± 0.015 | 0.0145 ± 0.0021 |
| HDF3CGF:CCL2/MCP-1 | -0.026 ± 0.034 | -0.008 ± 0.054 | -0.015 ± 0.035 | -0.0405 ± 0.023 | -0.038 ± 0.0099 | -0.044 ± 0.0085 | -0.0025 ± 0.052 | 0.0075 ± 0.036 | 0 ± 0.033 | -0.0105 ± 0.0064 | -0.567 ± 0.14 | -0.044 ± 0.031 | -0.073 ± 0.027 | -0.172 ± 0.067 | 0.006 | 0.0055 ± 0.0035 | 0.005 ± 0.014 | 0.021 ± 0.038 |
| HDF3CGF:CXCL10/IP-10 | -0.0105 ± 0.026 | -0.0165 ± 0.035 | 0.034 ± 0.025 | 0.0615 ± 0.052 | 0.06 ± 0.057 | 0.009 ± 0.072 | 0 ± 0.0057 | -0.005 ± 0.0028 | 0.001 ± 0.0085 | -0.216 ± 0.011 | -0.893 ± 0.047 | -0.0435 ± 0.04 | -0.155 ± 0.013 | -0.418 ± 0.059 | 0.0115 ± 0.036 | -0.0195 ± 0.025 | -0.042 ± 0.042 | -0.0805 ± 0.00071 |
| HDF3CGF:CD106/VCAM-1 | -0.0175 ± 0.00071 | 0.001 ± 0.0085 | -0.006 ± 0.057 | -0.0145 ± 0.035 | -0.054 ± 0.045 | -0.121 ± 0.073 | -0.001 ± 0.0071 | -0.016 ± 0.016 | -0.03 ± 0.04 | -0.147 ± 0.027 | -0.364 ± 0.023 | -0.09 ± 0.0042 | -0.202 | -0.264 ± 0.044 | -0.0245 ± 0.039 | -0.024 ± 0.0042 | -0.0585 ± 0.0064 | -0.101 ± 0.0092 |
| lMphg:M-CSF | -0.0075 ± 0.036 | 0.0135 ± 0.025 | -0.022 ± 0.034 | -0.031 ± 0.058 | -0.0455 ± 0.028 | -0.0495 ± 0.0021 | -0.012 ± 0.0071 | -0.0255 ± 0.0035 | -0.006 ± 0.017 | -0.0445 ± 0.0092 | -0.029 ± 0.021 | -0.0215 ± 0.0021 | -0.0385 ± 0.0078 | -0.0575 ± 0.044 | -0.0065 ± 0.023 | -0.01 ± 0.037 | -0.0285 ± 0.039 | -0.0285 ± 0.0035 |
| CASM3C:CCL2/MCP-1 | -0.013 | 0.02 ± 0.016 | -0.0825 ± 0.05 | -0.105 ± 0.037 | -0.113 ± 0.0042 | -0.086 ± 0.047 | -0.0085 ± 0.0092 | -0.0065 ± 0.011 | 0.015 ± 0.038 | 0.01 ± 0.013 | 0.01 ± 0.023 | 0.0125 ± 0.012 | -0.007 ± 0.017 | -0.004 ± 0.017 | -0.007 ± 0.088 | -0.043 ± 0.024 | -0.034 ± 0.016 | -0.021 ± 0.0028 |
